Assay results published in ChEMBL document CHEMBL1201862, “PubChem BioAssay data set” (2004).
Calls of active or inactive are those of the source.

Experiments:
[1] = biological target: Dual specificity tyrosine-phosphorylation-regulated kinase 1A (Rattus norvegicus, UniProt Q63470); assay type: biochemical, Homo sapiens
[2] = cells; assay type: functional, cell-based
[3] = cells; assay type: functional, cell-based; remark: listed apart in the source
[4] = biological target: T1, Corticotropin-releasing factor receptor 2/Corticotropin-releasing factor-binding protein (Homo sapiens, UniProt P24387+Q13324); assay: Dose Response confirmation of uHTS hits for small molecule antagonists of the CRF-binding protein and CRF-R2 receptor complex.; assay type: functional; details: read-out: IC50_Mean
T1 sequence (Q13324 whole entry): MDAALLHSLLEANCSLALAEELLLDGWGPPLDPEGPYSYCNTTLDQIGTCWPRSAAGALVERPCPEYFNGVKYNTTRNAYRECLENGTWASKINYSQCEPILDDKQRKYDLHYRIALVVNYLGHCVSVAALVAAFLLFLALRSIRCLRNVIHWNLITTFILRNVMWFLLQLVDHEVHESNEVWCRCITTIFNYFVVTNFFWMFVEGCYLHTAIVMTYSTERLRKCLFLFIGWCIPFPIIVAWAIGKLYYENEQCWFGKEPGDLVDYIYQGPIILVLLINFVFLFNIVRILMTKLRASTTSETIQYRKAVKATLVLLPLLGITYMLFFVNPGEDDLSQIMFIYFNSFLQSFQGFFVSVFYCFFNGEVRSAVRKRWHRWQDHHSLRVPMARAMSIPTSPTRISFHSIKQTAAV
T1 sequence (P24387 whole entry): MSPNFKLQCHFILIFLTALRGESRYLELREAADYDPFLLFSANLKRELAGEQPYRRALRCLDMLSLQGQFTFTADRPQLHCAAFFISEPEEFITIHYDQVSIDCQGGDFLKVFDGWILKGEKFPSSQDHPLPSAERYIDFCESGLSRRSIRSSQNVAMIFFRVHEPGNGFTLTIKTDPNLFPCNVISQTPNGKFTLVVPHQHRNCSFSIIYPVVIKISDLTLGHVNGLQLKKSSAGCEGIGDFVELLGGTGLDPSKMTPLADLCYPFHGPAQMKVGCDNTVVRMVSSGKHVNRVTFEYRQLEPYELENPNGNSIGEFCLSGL

[5] = biological target: T1, Corticotropin-releasing factor receptor 2/Corticotropin-releasing factor-binding protein; assay: activators of CRF receptor 2 with binding protein – uHTS hits, confirmation (AID 602473); assay type: functional; details: read-out: EC50_Mean
[6] = biological target: T2, Calpain-2 catalytic subunit (Sus scrofa, UniProt P43367); assay: m-calpain protease blockers, concentration series – biochemical, fluorogenic peptide substrate, dose response (AID 1420); assay type: functional
T2 sequence (P43367 whole entry): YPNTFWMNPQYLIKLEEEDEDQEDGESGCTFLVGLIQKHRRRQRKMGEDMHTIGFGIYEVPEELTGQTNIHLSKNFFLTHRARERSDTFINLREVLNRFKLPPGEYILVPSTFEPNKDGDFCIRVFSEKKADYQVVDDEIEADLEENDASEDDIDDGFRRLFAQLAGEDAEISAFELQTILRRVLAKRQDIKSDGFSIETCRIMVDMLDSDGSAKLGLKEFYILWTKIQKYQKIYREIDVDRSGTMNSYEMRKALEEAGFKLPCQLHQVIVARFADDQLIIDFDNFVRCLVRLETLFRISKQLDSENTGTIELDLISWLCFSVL

[7] = reduced cellular PGC1a acetyl-lysine signal – cell-based, cherry-picked samples, dose response (AID 720514); assay type: functional;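 also: potency may reflect raised or lowered acetylation signal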
[8] = blockers of HIV-1 envelope-mediated cell-cell fusion – cherry-pick, dose response (AID 652057); assay type: functional, cell-based
[9] = blockers of HIV-1 ZM109 envelope-driven cell-cell fusion – HeLa effector, CEM target cells, luciferase, cherry-pick, dose response (AID 652058); assay type: functional, cell-based;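 also: luciferase signal from HIV-1 Env mediated cell-cell fusion of effector and target cells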
[10] = off-target signal loss in HeLa-CEM21 co-culture – HeLa F-luc CTL cells, cherry-picked, counter-screen for HIV-1 Env fusion inhibitor project, dose response (AID 652040); assay type: functional, cell-based;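 also: potency for signal decrease marking cytotoxic or nonspecific inhibition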
[11] = Luminescence Cell-Based Dose Confirmation HTS to Identify Activators of 5'UTR Stem-Loop Driven Alpha-Synuclein mRNA Translation in H4 Neuroglioblastoma Cells. [Related pubchem assays: 1829 (Project Summary), 1814 (Primary HTS)]; assay type: functional
[12] = Luminescence Cell-Based Dose Response HTS to Identify Activators of Luciferase Translation or Activity in H4 […] Cells. [Related pubchem assays: 1829 (Project Summary), 1814 (Primary HTS)]; assay type: functional
[13] = tested on: H4; assay: Luminescence Cell-Based Dose Response HTS to Identify Activators of 5'UTR Stem-Loop Driven Prion Protein mRNA Translation in H4 Neuroglioblastoma Cells. [Related pubchem assays: 1829 (Project Summary), 1814 (Primary HTS)]; assay type: functional; details: Homo sapiens
[14] = Trypanosoma cruzi growth suppression in host cells – NIH3T3 host cells, beta-gal luminescence, confirmation (AID 2044); assay type: functional, cell-based;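 also: intracellular parasites grown in NIH/3T3 mouse fibroblasts as host cells; luminescent beta-galactosidase reporter signal from transgenic T. cruzi replicating inside host cells; inhibitors lower the luminescence signal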
[15] = NIH3T3 cell viability loss – ATP luminescence, mouse fibroblasts, counter-screen, dose response (AID 2010); assay type: functional, cell-based;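 also: cells exposed to compound for about 90 hours before reading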
[16] = biological target: Paired box protein Pax-8 (Homo sapiens, UniProt Q06710); assay: PAX8 transcriptional activity inhibition in RMG-I – RMG-I cells, luciferase, cherry-pick, dose response (AID 687027); assay type: functional, cell-based;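 also: luciferase reporter driven by Pax8 target thyroperoxidase promoter measured by SteadyGlo luminescence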
Paired box protein Pax-8, sequence (Q06710 whole entry, the tested form may be a part): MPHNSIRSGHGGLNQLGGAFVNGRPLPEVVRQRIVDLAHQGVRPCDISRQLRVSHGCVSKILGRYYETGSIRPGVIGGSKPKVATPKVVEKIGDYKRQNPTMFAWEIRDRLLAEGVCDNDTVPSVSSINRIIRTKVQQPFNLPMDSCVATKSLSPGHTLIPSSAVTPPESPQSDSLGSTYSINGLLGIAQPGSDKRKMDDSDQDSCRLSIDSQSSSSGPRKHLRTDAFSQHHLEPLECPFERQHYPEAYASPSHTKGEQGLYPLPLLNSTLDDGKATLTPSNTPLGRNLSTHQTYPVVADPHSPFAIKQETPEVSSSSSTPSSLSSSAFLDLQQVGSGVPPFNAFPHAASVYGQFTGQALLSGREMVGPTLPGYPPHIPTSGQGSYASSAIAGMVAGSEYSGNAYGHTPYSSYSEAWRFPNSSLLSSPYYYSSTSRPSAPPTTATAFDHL

[17] = biological target: T3, Carboxy-terminal domain RNA polymerase II polypeptide A small phosphatase 1 (Homo sapiens, UniProt Q9GZU7); assay: CTDSP1 inhibitors, concentration-response, biochemical, absorbance readout, ultra-high-throughput screen actives (AID 540297); assay type: functional
T3 sequence (Q9GZU7 whole entry): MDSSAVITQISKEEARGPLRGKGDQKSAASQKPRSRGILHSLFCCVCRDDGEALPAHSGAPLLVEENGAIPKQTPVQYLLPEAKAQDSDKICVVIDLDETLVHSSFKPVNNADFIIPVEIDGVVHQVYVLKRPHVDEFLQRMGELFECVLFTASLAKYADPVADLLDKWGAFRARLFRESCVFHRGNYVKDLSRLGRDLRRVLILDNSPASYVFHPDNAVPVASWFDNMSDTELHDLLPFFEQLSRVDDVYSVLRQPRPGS

[18] = biological target: Cytochrome P450 2C19 (Homo sapiens, UniProt P33261); assay: Cytochrome panel assay with activity outcomes. Panel member name: p450-cyp2c19 Compounds with AC50 equal or less than 10 uM are considered active; assay type: functional; details: read-out: AC50
Cytochrome P450 2C19, sequence (P33261 whole entry): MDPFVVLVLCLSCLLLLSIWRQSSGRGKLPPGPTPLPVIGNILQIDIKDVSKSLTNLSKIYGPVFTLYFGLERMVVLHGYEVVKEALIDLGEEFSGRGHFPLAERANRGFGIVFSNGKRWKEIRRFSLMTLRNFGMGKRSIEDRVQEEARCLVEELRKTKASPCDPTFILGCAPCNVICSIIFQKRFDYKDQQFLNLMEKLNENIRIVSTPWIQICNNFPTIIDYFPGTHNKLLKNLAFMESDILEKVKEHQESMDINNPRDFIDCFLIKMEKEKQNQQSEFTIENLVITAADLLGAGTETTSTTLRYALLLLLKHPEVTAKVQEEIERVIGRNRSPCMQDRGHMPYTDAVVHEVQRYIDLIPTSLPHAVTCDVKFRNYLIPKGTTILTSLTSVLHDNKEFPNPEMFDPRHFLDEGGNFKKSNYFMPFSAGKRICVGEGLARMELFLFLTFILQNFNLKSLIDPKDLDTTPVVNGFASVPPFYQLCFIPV

[19] = biological target: T4, Long-chain-fatty-acid--AMP ligase FadD28 (Mycobacterium tuberculosis, UniProt P9WQ59); assay: Fluorescence polarization aasay to screen for inhibitors that compete for the binding of FadD28 to a bisubstrate Measured in Biochemical System Using Plate Reader - 2147-01_Inhibitor_Dose_CherryPick_Activity.; assay type: functional, Mycobacterium tuberculosis H37Rv
T4 sequence (P9WQ59 whole entry): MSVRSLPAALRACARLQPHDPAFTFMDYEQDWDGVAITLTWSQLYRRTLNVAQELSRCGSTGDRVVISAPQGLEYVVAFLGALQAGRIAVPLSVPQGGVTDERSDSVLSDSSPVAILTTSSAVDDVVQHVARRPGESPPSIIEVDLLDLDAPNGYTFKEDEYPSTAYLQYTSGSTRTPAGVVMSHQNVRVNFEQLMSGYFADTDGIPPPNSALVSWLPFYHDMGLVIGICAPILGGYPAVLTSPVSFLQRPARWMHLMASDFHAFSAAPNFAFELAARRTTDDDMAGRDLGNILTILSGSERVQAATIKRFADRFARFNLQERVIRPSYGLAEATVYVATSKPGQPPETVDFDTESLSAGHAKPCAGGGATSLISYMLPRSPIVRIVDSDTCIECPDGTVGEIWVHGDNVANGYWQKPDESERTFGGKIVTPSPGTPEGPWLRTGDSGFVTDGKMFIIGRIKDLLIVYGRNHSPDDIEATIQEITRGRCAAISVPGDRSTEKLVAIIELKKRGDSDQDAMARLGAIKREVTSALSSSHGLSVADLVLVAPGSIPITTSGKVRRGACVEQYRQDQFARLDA

[20] = biological target: T5, Leucine aminopeptidase (Plasmodium falciparum 3D7, UniProt Q8IL11); assay: P. falciparum M17LAP inhibitors, primary screen, biochemical, fluorogenic H-Leu-NHMec substrate, 1536-well (AID 1619); assay type: functional
T5 sequence (Q8IL11 whole entry): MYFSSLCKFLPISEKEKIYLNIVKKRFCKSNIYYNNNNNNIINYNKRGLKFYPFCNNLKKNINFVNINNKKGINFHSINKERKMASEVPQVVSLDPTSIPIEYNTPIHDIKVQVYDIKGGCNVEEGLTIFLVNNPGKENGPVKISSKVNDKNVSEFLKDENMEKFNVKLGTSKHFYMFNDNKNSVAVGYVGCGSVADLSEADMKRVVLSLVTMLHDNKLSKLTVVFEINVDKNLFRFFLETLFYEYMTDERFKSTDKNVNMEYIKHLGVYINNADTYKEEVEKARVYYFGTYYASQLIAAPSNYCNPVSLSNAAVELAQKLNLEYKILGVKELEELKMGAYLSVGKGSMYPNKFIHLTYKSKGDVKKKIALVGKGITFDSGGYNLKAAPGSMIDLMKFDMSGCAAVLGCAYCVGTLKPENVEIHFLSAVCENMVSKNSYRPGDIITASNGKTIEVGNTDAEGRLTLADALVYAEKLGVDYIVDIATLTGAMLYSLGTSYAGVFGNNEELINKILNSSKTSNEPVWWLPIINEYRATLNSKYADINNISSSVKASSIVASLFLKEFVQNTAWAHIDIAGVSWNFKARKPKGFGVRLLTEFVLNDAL

[21] = OVCAR-3 cell viability loss – plate reader, dry powder samples, PAX8 inhibitor project, dose response (AID 743044); assay type: functional, cell-based
[22] = OVCAR8 cell viability loss – plate reader, dry powder samples, PAX8 project, dose response (AID 743197); assay type: functional, cell-based; details: OVCAR-8
[23] = A549 cell cytotoxicity, dose response, cytotoxicity control, plate reader, cherry-pick, antagonist series (AID 743412); assay type: functional, cell-based

CCCC[n+]1ccc(-c2nc3cc([N+](=O)[O-])ccc3[nH]2)cc1
AC50 [1]: 2.24 µM (active)

COc1ccc(/C=C/C(=O)NCCSCc2ccco2)cc1OC
EC50 [2]: > 350 µM (not active)
EC50 [3]: > 350 µM (not active)
IC50 [4]: > 47.1 µM (inactive)
EC50 [5]: > 53 µM (inactive)

FC(F)Oc1ccc(NC(S)=Nc2ccc3c[nH]nc3c2)cc1
EC50 [2]: > 350 µM (not active)
EC50 [3]: > 350 µM (not active)

Cc1ccc(-c2cc(C(=O)N3CCCCCC3)no2)cc1
EC50 [2]: > 350 µM (not active)
EC50 [3]: 10.2 µM (active)

O=C(COn1nnc2ccc(Cl)cc21)NC12CC3CC(CC(C3)C1)C2
IC50 [6]: > 50 µM (not active)
AC50 [7]: 31.5 µM (active)

CCOC(=O)c1ccc(NC2c3ncccc3C(=O)N2Cc2ccc(F)cc2)cc1 (configuration not stated)
AC50 [8]: 3.06 µM (active)
AC50 [9]: 0.521 µM (active)
AC50 [10]: 2.84 µM (active)

N#CC1(NC(=O)Cn2ncc(Cl)c(Cl)c2=O)CCCCC1
EC50 [11]: > 120 µM (not active)
EC50 [12]: > 60 µM (not active)
EC50 [13]: > 120 µM (not active)
EC50 [14]: 2.22 µM (active)
EC50 [15]: 3.27 µM (active)
AC50 [16]: 3.01 µM (active)
AC50 [7]: 10.8 µM (active)

Cc1ccc(-c2cc(C(=O)Nc3cccnc3)c3ccccc3n2)o1
IC50 [17]: 9.9 µM (active)

C=CCOc1ccc(/C=C2\SC(Nc3cccnc3)=NC2=O)cc1
EC50 [2]: > 350 µM (not active)
EC50 [3]: > 350 µM (not active)
AC50 [1]: 2.93 µM (active)

O=C(Nc1cccc(-c2nc3cccnc3s2)c1)c1cccnc1Cl
AC50 [1]: 0.651 µM (active)

Cc1cccc(NC(=O)Cn2c(=O)n3nc(CCn4nc(C)cc4C)nc3c3ccccc32)c1
AC50 [18]: 0.0355 µM (inconclusive)
AC50 [19]: 44.4 µM (active)

CCCC1CCC(=C(C#N)C(N)=O)CC1 (configuration not stated)
EC50 [2]: > 350 µM (not active)
EC50 [3]: 41.6 µM (active)

Nc1nc(-c2cccs2)c(-c2cccs2)s1
AC50 [19]: > 100 µM (inactive)

Cc1cc(C(=O)O)ccc1-c1ccc(/C=C2\NC(=O)N(Cc3ccccc3Cl)C2=O)o1
IC50 [20]: 13.6 µM (active)
IC50 [17]: 7.71 µM (active)

Clc1ccc2[nH]c(COc3ccccc3)nc2c1
AC50 [1]: 6.23 µM (active)

C[C@H]1CCCCO[C@@H](CN(C)Cc2ccc(C(F)(F)F)cc2)[C@@H](C)CN([C@@H](C)CO)C(=O)c2cc(NC(=O)Nc3ccc(F)cc3)ccc2O1
AC50 [16]: 5.26 µM (active)
AC50 [21]: 66.3 µM (active)
AC50 [22]: 56 µM (active)

C[C@@H]1CN([C@@H](C)CO)C(=O)Cc2cc(NC(=O)Nc3ccc(C(F)(F)F)cc3)ccc2O[C@H]1CN(C)C(=O)NC1CCCCC1
AC50 [16]: 8.4 µM (active)
AC50 [21]: 54 µM (active)

CCC(=O)N(C)C[C@H]1Oc2cc(C#CCC(C)C)ccc2S(=O)(=O)N([C@H](C)CO)C[C@@H]1C
AC50 [23]: 32.1 µM (active)

COc1ccccc1OCC(=O)N/N=C/c1c(O)ccc2ccccc12
EC50 [2]: 10.8 µM (active)
EC50 [3]: > 350 µM (not active)
